21 compounds from patent US20170044208A1, “SELECTIVE GLUCOCORTICOID RECEPTOR LIGANDS” (The University of Manchester, priority 2013, published 2017) can be followed below.

The test system of one test is NFkB. Kind of test: Transrepression assay (NFκB-LUC reporter in HeLa cells, TNF stimulated). The conditions noted are these: for Emax / pIC50: Homo sapiens, HeLa; for Emax: 16 h, read-out: TR Max %. It counts as cell-based. Here is the method: HeLa cells were seeded at 80×10^4 cells/dish in 100 mm dishes. Cells were transfected the next day with NFκB-LUC reporter (5 μg) and pGL4-hRLuc (0.1 μg), in 0.25 mL of Opti-MEM I using FuGENE HD (15 μL). After 24 hours, cells were trypsinized and seeded in to 24-well plates at a density of 8-10×10^4 cells/mL. Following overnight incubation, cells were starved for a further 24 hours in DMEM.
On the day of the experiment, compounds were added to cells one hour prior to the addition of […] (0.5 ng/mL). After a further 16 hours, cells were washed twice with ice-cold PBS, then lysed with 100 μL of 1×PLB.
(§1) Firefly and Renilla luciferase activity was measured using the Dual Luciferase Reporter system following the manufacturer's protocol.
(§2) IC50 and EC50 values were calculated by using GraphPad Prism 5.0. Briefly, luminescence values for luciferase were normalised using the Renilla luminescence values. The normalised values were input into GraphPad Prism 5.0. Non-linear regression analysis was carried out using the “log(concentration) vs. response” equation of the software, with a Hill slope coefficient fixed at 1.
(§3) IC50 and EC50 values are mean values in nM of all IC50/EC50 values for the compound. Max % values are mean values of the Max% activity.

Test [1] addresses T1, Glucocorticoid Receptor (GR) (Homo sapiens, UniProt P04150).
T1 construct: Cells were transfected the next day with MMTV-Luc (5 μg) and pGL4-hRLuc (0.1 μg); endogenous in cells; host or cells: HeLa
T1 sequence (P04150 1-777): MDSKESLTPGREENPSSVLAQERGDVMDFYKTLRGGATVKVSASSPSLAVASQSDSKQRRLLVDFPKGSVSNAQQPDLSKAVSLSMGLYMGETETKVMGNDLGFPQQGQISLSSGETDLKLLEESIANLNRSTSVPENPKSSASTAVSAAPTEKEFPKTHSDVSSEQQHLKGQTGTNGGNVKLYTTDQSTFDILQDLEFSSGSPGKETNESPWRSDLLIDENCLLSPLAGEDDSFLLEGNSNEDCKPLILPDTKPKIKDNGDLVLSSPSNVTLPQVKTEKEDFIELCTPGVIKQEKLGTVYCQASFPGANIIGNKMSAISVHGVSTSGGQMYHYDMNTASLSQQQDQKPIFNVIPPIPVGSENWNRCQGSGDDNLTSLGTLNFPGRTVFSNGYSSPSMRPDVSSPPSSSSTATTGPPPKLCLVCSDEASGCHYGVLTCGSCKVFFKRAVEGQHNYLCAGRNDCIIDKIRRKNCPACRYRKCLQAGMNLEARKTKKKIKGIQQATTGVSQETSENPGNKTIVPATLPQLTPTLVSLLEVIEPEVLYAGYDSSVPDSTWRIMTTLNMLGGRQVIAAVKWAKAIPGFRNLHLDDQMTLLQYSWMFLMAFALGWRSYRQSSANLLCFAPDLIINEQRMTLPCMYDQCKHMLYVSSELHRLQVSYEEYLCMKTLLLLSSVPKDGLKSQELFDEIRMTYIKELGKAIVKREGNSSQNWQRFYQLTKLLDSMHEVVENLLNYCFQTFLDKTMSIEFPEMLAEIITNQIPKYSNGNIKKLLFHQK
Description: Transactivation assay (MMTV-Luc reporter in HeLa cells). The format is cell-based. The conditions noted are these: for Emax / pEC50: HeLa; for Emax: 16 h, read-out: TA Max %; for pEC50: concentration for half-maximal transactivation, MMTV-Luc, 16 hours, mean, read-out: TA EC50. The procedure: HeLa cells were seeded at 80×10^4 cells/dish in 100 mm dishes. Cells were transfected the next day with MMTV-Luc (5 μg) and pGL4-hRLuc (0.1 μg), in 250 μL of Opti-MEM I using FuGENE HD (15 μL). After 24 hours, cells were trypsinized and seeded into 96-well plates at a density of 8-10×10^4 cells/mL.
Following overnight incubation to allow attachment, cells were treated with the required concentration of compounds, then further incubated for 16 hours. Media was aspirated and cells lysed in 40 μL of 1×PLB.
as §1, §2, §3

Setting [2] is: concentration for half-maximal repression of NFkB, TNF 0.5 ng/mL, 16 hours, mean, read-out: TR IC50.

pEC50, pIC50: −log10 of the molar value. Like-named read-outs stand apart in the source and are kept apart here.

Consider `C[C@@H]1C[C@H]2[C@@H]3CCC4=CC(=O)C=C[C@]4(C)[C@@]3(F)[C@@H](O)C[C@]2(C)[C@@]1(O)C(=O)NCCCc1ccccn1` [Compound 2], for which, in the test with NFkB, the Emax was found to be 52.4%. In the test with NFkB (setting [2]), the pIC50 (in general, the IC50 on a negative log10 scale, so that one unit is a factor of ten) is 7.63. Besides, in test [1], the Emax worked out at 18.3% and the pEC50 (as a rule, −log10 of the EC50, conventionally taken in molar units) was 5.93.
The like results for `C[C@@H]1C[C@H]2[C@@H]3CCC4=CC(=O)C=C[C@]4(C)[C@@]3(F)[C@@H](O)C[C@]2(C)[C@@]1(O)c1csc(NC(=O)c2ccc3ncsc3c2)n1` [Compound 39] were, in that order, 19%, 8.08, 0.96% and 5.94.
The like results for `C[C@@H]1C[C@H]2[C@@H]3CCC4=CC(=O)C=C[C@]4(C)[C@@]3(F)[C@@H](O)C[C@]2(C)[C@@]1(O)c1csc(NC(=O)c2cscn2)n1` [Compound 36] were, in that order, 33.6%, 7.97, 1.19% and 5.26.
For the compound `C[C@@H]1C[C@H]2[C@@H]3CCC4=CC(=O)C=C[C@]4(C)[C@@]3(F)[C@@H](O)C[C@]2(C)[C@@]1(O)c1csc(NC(=O)c2ncco2)n1` [Compound 33], the Emax stood at 32.7% with NFkB and 0% in test [1]. Besides, the pIC50 in the test on NFkB (setting [2]) was 7.17.
Consider `CCOc1ccc(C(=O)Nc2nc([C@@]3(O)[C@H](C)C[C@H]4[C@@H]5CCC6=CC(=O)C=C[C@]6(C)[C@@]5(F)[C@@H](O)C[C@@]43C)cs2)cc1` [Compound 46], for which the Emax in the test with NFkB amounted to 55.1%; in test [1], 9.95%. In addition, in the test on NFkB (setting [2]), the pIC50 was 7.57. The pEC50 in test [1] was 5.18.
For the compound `C[C@@H]1C[C@H]2[C@@H]3CCC4=CC(=O)C=C[C@]4(C)[C@@]3(F)[C@@H](O)C[C@]2(C)[C@@]1(O)c1csc(NC(=O)c2ccccc2F)n1` [Compound 28], the Emax with NFkB is 36%. Besides, the pIC50 in the test on NFkB (setting [2]) was 6.92. For the same compound, in test [1], the Emax stood at 0% and the negative logarithm of the EC50 (pEC50) is 4.53.
The like results for `COc1ccc(CCCNC(=O)[C@@]2(O)[C@H](C)C[C@H]3[C@@H]4CCC5=CC(=O)C=C[C@]5(C)[C@@]4(F)[C@@H](O)C[C@@]32C)cc1OC` [Compound 13] were, in that order, 87.6%, 7.97, 30% and 6.72.
As for `COC(=O)c1ccc(OCCCNC(=O)[C@@]2(O)[C@H](C)C[C@H]3[C@@H]4CCC5=CC(=O)C=C[C@]5(C)[C@@]4(F)[C@@H](O)C[C@@]32C)cc1` [Compound 17], the Emax with NFkB was found to be 82.3%; in test [1], 39.1%. For the same compound, the pIC50 in the test with NFkB (comparison table, half-maximal repression of NFkB, multiple experiments, read-out: IC50) was 8.92; in the test with NFkB (setting [2]) it was 8.92. The TR % with NFkB (comparison table, maximal NFkB repression compared to Dexamethasone) was determined as 87%. The same compound displayed a TA % in test [1] (comparison table, against maximal activation seen with dexamethasone) of 39%. In addition, in test [1], the pEC50 is 6.08.
With `C[C@@H]1C[C@H]2[C@@H]3CCC4=CC(=O)C=C[C@]4(C)[C@@]3(F)[C@@H](O)C[C@]2(C)[C@@]1(O)C(=O)NCCOc1ccccn1` [Compound 8], the Emax in the test with NFkB came out at 95%. For the same compound, the pIC50 with NFkB (setting [2]) is 8.24. Moreover, in test [1], the Emax amounted to 49.7% and the pEC50 is 6.61.
The like results for `C[C@@H]1C[C@H]2[C@@H]3CCC4=CC(=O)C=C[C@]4(C)[C@@]3(F)[C@@H](O)C[C@]2(C)[C@@]1(O)c1csc(NC(=O)CCc2ccc(F)cc2)n1` [Compound 38] were, in that order, 65.5%, 7.51, 2.48% and 4.61.
Taken in the same sequence, the figures for `C[C@@H]1C[C@H]2[C@@H]3CCC4=CC(=O)C=C[C@]4(C)[C@@]3(F)[C@@H](O)C[C@]2(C)[C@@]1(O)C(=O)NCCCOc1ccc(F)cc1` [Compound 6] were 84.6%, 7.94, 16% and 6.05.
The like results for `C[C@@H]1C[C@H]2[C@@H]3CCC4=CC(=O)C=C[C@]4(C)[C@@]3(F)[C@@H](O)C[C@]2(C)[C@@]1(O)C(=O)NCCCOc1ccc(C(F)(F)F)cc1` [Compound 9] were, in that order, 80.5%, 7.60, 15.1% and 5.95.
For `C[C@@H]1C[C@H]2[C@@H]3CCC4=CC(=O)C=C[C@]4(C)[C@@]3(F)[C@@H](O)C[C@]2(C)[C@@]1(O)c1csc(NC(=O)c2ccc(F)c(F)c2)n1` [Compound 44], the Emax in the test with NFkB came out at 41.8%. In addition, the negative logarithm of the IC50 (pIC50) with NFkB (setting [2]) was 7.54. For the same compound, in test [1], the Emax turned out to be 14.6% and the negative logarithm of the EC50 (pEC50) is 6.04.
In the case of `C[C@@H]1C[C@H]2[C@@H]3CCC4=CC(=O)C=C[C@]4(C)[C@@]3(F)[C@@H](O)C[C@]2(C)[C@@]1(O)c1csc(NC(=O)c2cnco2)n1` [Compound 41], the Emax in the test on NFkB came out at 26%; in test [1] it was 1.27%. Moreover, the pIC50 in the test with NFkB (setting [2]) is 7.38. For the same compound, the pEC50 in test [1] was 4.99.
Taken in the same sequence, the figures for `C[C@@H]1C[C@H]2[C@@H]3CCC4=CC(=O)C=C[C@]4(C)[C@@]3(F)[C@@H](O)C[C@]2(C)[C@@]1(O)c1csc(NC(=O)c2cncs2)n1` [Compound 35] were 35.9%, 0.23%, 7.35 and 5.38.
`C[C@@H]1C[C@H]2[C@@H]3CCC4=CC(=O)C=C[C@]4(C)[C@@]3(F)[C@@H](O)C[C@]2(C)[C@@]1(O)C(=O)NCCCOc1ccc(C(=O)O)cc1` [Compound 19]: the Emax in the test on NFkB was 33.3%. The pIC50 with NFkB (setting [2]) is 5.84. In addition, in test [1], the Emax was 0.84% and the pEC50 is 3.39.
As to `C[C@@H]1C[C@H]2[C@@H]3CCC4=CC(=O)C=C[C@]4(C)[C@@]3(F)[C@@H](O)C[C@]2(C)[C@@]1(O)c1csc(NC(=O)Cc2ccc(F)cc2)n1` [Compound 24], the Emax in the test with NFkB is 79%. Besides, the pIC50 in the test with NFkB (setting [2]) is 8.22. In test [1], the Emax came to 2.63% and the negative-log EC50 (pEC50) is 5.11.
The like results for `C[C@@H]1C[C@H]2[C@@H]3CCC4=CC(=O)C=C[C@]4(C)[C@@]3(F)[C@@H](O)C[C@]2(C)[C@@]1(O)c1csc(NC(=O)c2ccc(F)nc2)n1` [Compound 47] were, in that order, 48%, 7.64, 7.41% and 6.17.
On to `C[C@@H]1C[C@H]2[C@@H]3CCC4=CC(=O)C=C[C@]4(C)[C@@]3(F)[C@@H](O)C[C@]2(C)[C@@]1(O)c1csc(NC(=O)c2ccncc2)n1` [Compound 31], for which the Emax in the test with NFkB stood at 37.5%; in test [1] it was 0%. For the same compound, the pIC50 in the test with NFkB (setting [2]) was 7.95.
With `COc1cccc(OCCCNC(=O)[C@@]2(O)[C@H](C)C[C@H]3[C@@H]4CCC5=CC(=O)C=C[C@]5(C)[C@@]4(F)[C@@H](O)C[C@@]32C)c1` [Compound 15], in the test with NFkB, the Emax is 79.7%. Further, the pIC50 in the test with NFkB (setting [2]) was 8.45. In test [1], the Emax was found to be 20.8% and the pEC50 is 5.91.
The like results for `C[C@@H]1C[C@H]2[C@@H]3CCC4=CC(=O)C=C[C@]4(C)[C@@]3(F)[C@@H](O)C[C@]2(C)[C@@]1(O)C(=O)NCCCc1cccc(F)c1` [Compound 14] were, in that order, 88.6%, 7.62, 36.6% and 6.27.
